In patent publication US8951997B2, “Substituted isoquinoline derivative” (D. Western Therapeutics Institute, Inc., priority 2009, dated 2015):
Where a name gives a salt, the structure may show the parent alone.

What was measured:
[1] = test system: rabbits (New Zealand White); assay: Ocular hypotensive effect in rabbits; type: in vivo, rabbit; details: Oryctolagus cuniculus, topical, 0.04 mL dropped to one eye, vehicle to contralateral eye, test compound solution concentration 10 (W/V), read-out: Maximum ocular hypotensive rate
Protocol: The compound of the present invention was administered to rabbits (New Zealand White, sex: male, 3 to 7 per group) and evaluated for its ocular hypotensive effect.
Each test compound was dissolved in a vehicle (1.04 g of sodium dihydrogen phosphate dihydrate and 0.5 g of sodium chloride dissolved in purified water and then adjusted to pH 7.0 with sodium hydroxide to make the total amount to 100 mL) to prepare a test compound solution with a concentration of 10 (W/V).
The intraocular pressures of the rabbits were measured using Tiolat TonoVet handheld tonometer immediately before administration of test compound. The test compound solution and the vehicle were dropped at a volume of 0.04 mL to one eye and the contralateral eye, respectively, and the intraocular pressures were measured over time in the same way as above. The rate of the intraocular pressure of the eye receiving the test compound solution to that of the eye receiving the vehicle was calculated as an ocular hypotensive rate.

[2] = test system: mouse model of spinal cord injury; assay: Motor function recovering effect on a spinal cord injury model of the mouse; type: in vivo; details: C57BL/6Cr mice, 3 mg/kg intraperitoneal once a day for 7 days, day 14 after operation, score 0 normal to 72 most serious, saline group 41
Protocol: To examine the usefulness of the compound of the present invention as a therapeutic agent for spinal cord injury, the mouse model of spinal cord injury was prepared and a motor function recovering effect after spinal cord injury was investigated.
Example 14 as a test compound was dissolved in saline and diluted to prepare a test compound solution with a predetermined concentration.
C57BL/6Cr mice (female, body weight: around 19 g, 6 to 8 […] per group) were anesthetized by halothane inhalation. The spinal cord at the level of the eighth thoracic vertebrae was compressed with 20 g of weight for 5 minutes to prepare a spinal cord injury model, according to the method described in the document (Acta Neuropathol. 100, 13-22 (2000)). The test compound was intraperitoneally administered at a dose of 3 mg/kg once a day for 7 consecutive days from the surgery day. After 1, 4, 7, 10, and 14 days from the preparation of the spinal cord injury model, the severity of neurological dysfunction was scored by a partial modification of the performance score described in J. Neurosurg. 93 (Spine 1), 94-101(2000). The details of the behavioral score are as follows:
Open field locomotion (rated 0 to 42)
Toe spread (rated 0 to 5)
Contact place response (rated 0 to 5)
Withdrawal reflexes (rated 0 to 5 for each reflex to extension, pain, and pressure stimulations)
Righting reflex (rated 0 to 5) […]

C[C@@H]1CNCCCCN1S(=O)(=O)c1ccc2cnccc2c1 [Example 14, (R)-6-(2-methyl-1,4-diazocan-1-ylsulfonyl)isoquinoline dihydrochloride]
inhibition in vivo at 10 % [1]: ≥ 15%
neurological dysfunction score [2]: 33
